Reference: ChEMBL document CHEMBL1201862, “PubChem BioAssay data set” (2004)
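Growth conditions: 96-well plates. Treatment: test compound, 48 hours, 5 concentrations. Analysis: linear interpolation between bracketing concentrations; unreached endpoints set to highest concentration. Abbreviation: GI50, concentration required for 50% inhibition of growth.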 Calls of active or inactive are those of the source. Cut-off read from the data, not from the text of the source: active = GI50 up to about 1.1 µM and inactive = higher.

Columns and labels:
Experiment in all cases: NCI anticancer screen, dose series, 48 h
SNB-19 = test system: SNB-19
OVCAR-4 = test system: OVCAR-4
TK-10 = test system: TK-10
HCT-15 = test system: HCT-15
NCI-H23 = test system: NCI-H23
NCI-H522 = test system: NCI-H522
HOP-92 = test system: HOP-92
SR = test system: SR
PC-3 = test system: PC-3
U-251 = test system: U-251
HT-29 = test system: HT-29
MOLT-4 = test system: MOLT-4
SK-OV-3 = test system: SK-OV-3
SF-295 = test system: SF-295
MDA-MB-231 = test system: MDA-MB-231
SF-268 = test system: SF-268
SW-620 = test system: SW-620
OVCAR-3 = test system: OVCAR-3
SNB-75 = test system: SNB-75
BT-549 = test system: BT-549

Structure (SMILES) | GI50 (SNB-19) | GI50 (OVCAR-4) | GI50 (TK-10) | GI50 (HCT-15) | GI50 (NCI-H23) | GI50 (NCI-H522) | GI50 (HOP-92) | GI50 (SR) | GI50 (PC-3) | GI50 (U-251) | GI50 (HT-29) | GI50 (MOLT-4) | GI50 (SK-OV-3) | GI50 (SF-295) | GI50 (MDA-MB-231) | GI50 (SF-268) | GI50 (SW-620) | GI50 (OVCAR-3) | GI50 (SNB-75) | GI50 (BT-549)
O=[N+]([O-])c1cccc2nccc(NCCN3CCOCC3)c12 | 25.7 µM (inactive) | 8.99 µM (inactive) | 23.7 µM (inactive) | 9.35 µM | 11.7 µM (inactive) | 3.95 µM (inactive) | 33.2 µM (inactive) | 10.1 µM (inactive) | 9.64 µM (inactive) | 22.2 µM (inactive) | 13.5 µM (inactive) | 8.43 µM (inactive) | 35.2 µM (inactive) | 13.9 µM (inactive) | 21.7 µM (inactive) | 20.5 µM (inactive) | 8.91 µM (inactive) | 14.2 µM (inactive) | 16.5 µM (inactive) | –
CN(C)c1cccc(NC2=NCCO2)c1 | 52.8 µM (inactive) | > 100 µM (inactive) | > 100 µM (inactive) | 45.1 µM | 23.6 µM (inactive) | 80.2 µM (inactive) | 12.2 µM (inactive) | 30.3 µM (inactive) | 31 µM (inactive) | 83.8 µM (inactive) | 19.2 µM (inactive) | 46.7 µM (inactive) | – | > 100 µM (inactive) | 51.4 µM (inactive) | 92 µM (inactive) | 57.7 µM (inactive) | 59.4 µM (inactive) | 41.2 µM (inactive) | –
COc1ccc(CCc2nccn2C)cc1OC | > 100 µM (inactive) | > 100 µM (inactive) | > 100 µM (inactive) | > 100 µM | > 100 µM (inactive) | – | > 100 µM (inactive) | > 100 µM (inactive) | > 100 µM (inactive) | – | > 100 µM (inactive) | > 100 µM (inactive) | > 100 µM (inactive) | > 100 µM (inactive) | – | > 100 µM (inactive) | > 100 µM (inactive) | > 100 µM (inactive) | – | > 100 µM (inactive)
O=C1/C(=C/c2ccc(O)cc2)NC(=S)N1CN1CCCCC1 | 89.5 µM (inactive) | 53.3 µM (inactive) | 94 µM (inactive) | 31.8 µM | > 100 µM (inactive) | 55.3 µM (inactive) | 54.6 µM (inactive) | 49.2 µM (inactive) | 53.2 µM (inactive) | 49.8 µM (inactive) | 43 µM (inactive) | 62.7 µM (inactive) | > 100 µM (inactive) | 89.7 µM (inactive) | > 100 µM (inactive) | 89.1 µM (inactive) | 36.6 µM (inactive) | > 100 µM (inactive) | > 100 µM (inactive) | –
CC1=CC(=O)C(C)(C2=NC(C)(C)CO2)c2ccccc21 (centres undefined) | > 100 µM (inactive) | > 100 µM (inactive) | > 100 µM (inactive) | > 100 µM | > 100 µM (inactive) | > 100 µM (inactive) | > 100 µM (inactive) | > 100 µM (inactive) | – | > 100 µM (inactive) | > 100 µM (inactive) | > 100 µM (inactive) | > 100 µM (inactive) | > 100 µM (inactive) | – | > 100 µM (inactive) | > 100 µM (inactive) | > 100 µM (inactive) | > 100 µM (inactive) | –
COC(=O)/C(C=O)=C/Sc1ccccc1 | 54.5 µM (inactive) | 45 µM (inactive) | 40.6 µM (inactive) | 22.6 µM | 36.4 µM (inactive) | 11.7 µM (inactive) | 52.6 µM (inactive) | 40.1 µM (inactive) | – | 17.1 µM (inactive) | 25.5 µM (inactive) | > 100 µM (inactive) | 42.9 µM (inactive) | 30.1 µM (inactive) | – | 11 µM (inactive) | 37.9 µM (inactive) | 21.3 µM (inactive) | 18.5 µM (inactive) | –
N#CCCC1(CCC#N)CCCCCCC(CCC#N)(CCC#N)C(=O)C1=O | > 100 µM (inactive) | > 100 µM (inactive) | > 100 µM (inactive) | > 100 µM | > 100 µM (inactive) | > 100 µM (inactive) | > 100 µM (inactive) | > 100 µM (inactive) | > 100 µM (inactive) | > 100 µM (inactive) | > 100 µM (inactive) | – | > 100 µM (inactive) | > 100 µM (inactive) | – | > 100 µM (inactive) | > 100 µM (inactive) | > 100 µM (inactive) | > 100 µM (inactive) | –
NNC(=S)N/N=C(\c1nc2ccc(Cl)cc2nc1O)C(O)c1cccc([N+](=O)[O-])c1 (centres undefined) | > 100 µM (inactive) | > 72.1 µM (inactive) | > 100 µM (inactive) | > 42.1 µM | > 42.8 µM (inactive) | > 100 µM (inactive) | > 86.3 µM (inactive) | 15.9 µM (inactive) | – | > 100 µM (inactive) | > 36.1 µM (inactive) | > 100 µM (inactive) | > 100 µM (inactive) | > 63.7 µM (inactive) | – | > 52.1 µM (inactive) | 20.9 µM (inactive) | > 100 µM (inactive) | > 100 µM (inactive) | –
CN(C)C(=S)/N=c1\ss/c(=N\C(=S)N(C)C)n1-c1ccc(Cl)cc1 | > 100 µM (inactive) | > 10 µM (inactive) | > 100 µM (inactive) | > 100 µM | > 100 µM (inactive) | 87.9 µM (inactive) | > 100 µM (inactive) | > 100 µM (inactive) | – | > 100 µM (inactive) | > 100 µM (inactive) | > 100 µM (inactive) | > 100 µM (inactive) | > 100 µM (inactive) | – | > 100 µM (inactive) | > 100 µM (inactive) | > 100 µM (inactive) | 3.33 µM (inactive) | –
COc1ccc(NC(C)=O)cc1C1CCC(=O)N1 (centres undefined) | > 100 µM (inactive) | > 100 µM (inactive) | > 100 µM (inactive) | > 100 µM | > 100 µM (inactive) | > 100 µM (inactive) | > 100 µM (inactive) | – | > 100 µM (inactive) | > 100 µM (inactive) | > 100 µM (inactive) | > 100 µM (inactive) | > 100 µM (inactive) | > 100 µM (inactive) | > 100 µM (inactive) | > 100 µM (inactive) | > 100 µM (inactive) | > 100 µM (inactive) | > 100 µM (inactive) | –
CC(C)(C)OC(=O)C1=C(O)C(C(=O)OC(C)(C)C)C23CCCCC12C(C(=O)OC(C)(C)C)C(O)=C3C(=O)OC(C)(C)C (centres undefined) | > 100 µM (inactive) | > 100 µM (inactive) | > 100 µM (inactive) | > 100 µM | > 100 µM (inactive) | > 100 µM (inactive) | > 100 µM (inactive) | > 100 µM (inactive) | – | > 100 µM (inactive) | > 100 µM (inactive) | > 100 µM (inactive) | > 100 µM (inactive) | > 100 µM (inactive) | – | > 100 µM (inactive) | > 100 µM (inactive) | > 100 µM (inactive) | > 100 µM (inactive) | –
NCc1ccc(-c2ccc(CN)s2)s1 | > 100 µM (inactive) | > 100 µM (inactive) | 11.3 µM (inactive) | > 100 µM | > 100 µM (inactive) | > 100 µM (inactive) | > 100 µM (inactive) | – | > 100 µM (inactive) | > 100 µM (inactive) | > 100 µM (inactive) | > 100 µM (inactive) | 83.8 µM (inactive) | > 100 µM (inactive) | > 100 µM (inactive) | – | > 100 µM (inactive) | 42.3 µM (inactive) | > 100 µM (inactive) | –
